Measurements taken from ChEMBL document CHEMBL4308841, “Synthesis, in vitro antiproliferative activity, and kinase inhibitory effects of pyrazole-containing diarylureas and diarylamides” (Eur J Med Chem, 2018).

Columns and labels:
T47D = test: Growth inhibition of human T47D cells assessed as cell growth at 0.1 uM incubated for 48 hrs by sulforhodamine B assay relative to control; format: functional; conditions: read-out: Activity
Malme-3M = test: Growth inhibition of human MALME-3M cells assessed as cell growth at 100 uM incubated for 48 hrs by sulforhodamine B assay relative to control; format: functional; conditions: read-out: Activity
SK-MEL-2 = test: Growth inhibition of human SK-MEL-2 cells assessed as cell growth at 1 uM incubated for 48 hrs by sulforhodamine B assay relative to control; format: functional; conditions: SK-MEL-2, 48 h, read-out: Activity
CCRF-CEM [1] = test: Growth inhibition of human CCRF-CEM cells assessed as cell growth at 0.1 uM incubated for 48 hrs by sulforhodamine B assay relative to control; format: functional; conditions: read-out: Activity
OVCAR-8 = test: Growth inhibition of human OVCAR8 cells incubated for 48 hrs by sulforhodamine B assay; format: functional, cell-based; conditions: OVCAR-8, 48 h
DU-145 = test: Growth inhibition of human DU145 cells incubated for 48 hrs by sulforhodamine B assay; format: functional, cell-based; conditions: DU-145, 48 h
BT-549 [2] = test: Growth inhibition of human BT549 cells incubated for 48 hrs by sulforhodamine B assay; format: functional, cell-based; conditions: BT-549, 48 h
SK-MEL-28 [3] = test: Growth inhibition of human SK-MEL-28 cells assessed as cell growth at 0.1 uM incubated for 48 hrs by sulforhodamine B assay relative to control; format: functional; conditions: SK-MEL-28, 48 h, read-out: Activity
ACHN = test: Growth inhibition of human ACHN cells assessed as cell growth at 0.01 uM incubated for 48 hrs by sulforhodamine B assay relative to control; format: functional; conditions: read-out: Activity
BT-549 [4] = test: Growth inhibition of human BT549 cells assessed as cell growth at 100 uM incubated for 48 hrs by sulforhodamine B assay relative to control; format: functional; conditions: BT-549, 48 h, read-out: Activity
SF-539 = test: Growth inhibition of human SF539 cells incubated for 48 hrs by sulforhodamine B assay; format: functional, cell-based; conditions: SF-539, 48 h
MOLT-4 = test: Growth inhibition of human MOLT4 cells assessed as cell growth at 0.01 uM incubated for 48 hrs by sulforhodamine B assay relative to control; format: functional; conditions: MOLT-4, 48 h, read-out: Activity
UACC-257 = test: Growth inhibition of human UACC257 cells incubated for 48 hrs by sulforhodamine B assay; format: functional, cell-based; conditions: UACC-257, 48 h
NCI-H23 = test: Growth inhibition of human NCI-H23 cells incubated for 48 hrs by sulforhodamine B assay; format: functional, cell-based; conditions: NCI-H23, 48 h
UO-31 = test: Growth inhibition of human UO31 cells incubated for 48 hrs by sulforhodamine B assay; format: functional, cell-based; conditions: UO-31, 48 h
NCI-H322M = test: Growth inhibition of human NCI-H322M cells assessed as cell growth at 0.1 uM incubated for 48 hrs by sulforhodamine B assay relative to control; format: functional; conditions: read-out: Activity
OVCAR-3 [5] = test: Growth inhibition of human OVCAR3 cells assessed as cell growth at 0.01 uM incubated for 48 hrs by sulforhodamine B assay relative to control; format: functional; conditions: OVCAR-3, 48 h, read-out: Activity
SK-MEL-28 [6] = test: Growth inhibition of human SK-MEL-28 cells assessed as cell growth at 0.01 uM incubated for 48 hrs by sulforhodamine B assay relative to control; format: functional; conditions: SK-MEL-28, 48 h, read-out: Activity
NCI/ADR-RES = test: Growth inhibition of human NCI/ADR-RES cells incubated for 48 hrs by sulforhodamine B assay; format: functional, cell-based
NCI-H522 = test: Growth inhibition of human NCI-H522 cells assessed as cell growth at 0.01 uM incubated for 48 hrs by sulforhodamine B assay relative to control; format: functional; conditions: NCI-H522, 48 h, read-out: Activity
RPMI-8226 = test: Growth inhibition of human RPMI8226 cells assessed as cell growth at 1 uM incubated for 48 hrs by sulforhodamine B assay relative to control; format: functional; conditions: RPMI-8226, 48 h, read-out: Activity
KM12 = test: Growth inhibition of human KM12 cells assessed as cell growth at 0.1 uM incubated for 48 hrs by sulforhodamine B assay relative to control; format: functional; conditions: KM12, 48 h, read-out: Activity
OVCAR-3 [7] = test: Growth inhibition of human OVCAR3 cells assessed as cell growth at 100 uM incubated for 48 hrs by sulforhodamine B assay relative to control; format: functional; conditions: OVCAR-3, 48 h, read-out: Activity
CCRF-CEM [8] = test: Growth inhibition of human CCRF-CEM cells assessed as cell growth at 1 uM incubated for 48 hrs by sulforhodamine B assay relative to control; format: functional; conditions: read-out: Activity
HL-60(TB) = test: Growth inhibition of human HL-60(TB) cells incubated for 48 hrs by sulforhodamine B assay; format: functional, cell-based; conditions: HL-60, 48 h
CAKI-1 = test: Growth inhibition of human Caki1 cells assessed as cell growth at 1 uM incubated for 48 hrs by sulforhodamine B assay relative to control; format: functional; conditions: CAKI-1, 48 h, read-out: Activity
PC-3 = test: Growth inhibition of human PC3 cells assessed as cell growth at 1 uM incubated for 48 hrs by sulforhodamine B assay relative to control; format: functional; conditions: PC-3, 48 h, read-out: Activity
MDA-MB-231 = test: Growth inhibition of human MDA-MB-231 cells assessed as cell growth at 1 uM incubated for 48 hrs by sulforhodamine B assay relative to control; format: functional; conditions: MDA-MB-231, 48 h, read-out: Activity
[9] = read-out: LC50 (the source's name)
[10] = read-out: pLC50 (the source's name) (converted)

Work on `O=C(Nc1cccc(-n2cc(-c3ccncc3)c(-c3cc(O)cc(Cl)c3)n2)c1)Nc1ccc(Cl)c(C(F)(F)F)c1` yielded a growth at 0.1 µM (T47D) of 90%, a growth at 100 µM (Malme-3M) of -91% and a growth at 1 µM (SK-MEL-2) of 104%. For the same compound, the growth at 0.1 µM (CCRF-CEM [1]) was 95%, the GI50 (OVCAR-8; read-out: GI50) was 2.15 µM and the CC50 (OVCAR-8; [9]) was 50.1 µM. The TGI (OVCAR-8; read-out: TGI) was 55.5 µM, the GI50 (OVCAR-8; read-out: pGI50 (converted)) was 2.14 µM and the CC50 (OVCAR-8; [10]) was 79.4 µM. It also gave a TGI (OVCAR-8; read-out: pTGI (converted)) of 5.62 µM, a GI50 (DU-145; read-out: GI50) of 3.77 µM and a CC50 (DU-145; [9]) of 55.8 µM. The TGI (DU-145; read-out: TGI) was 11.7 µM, the GI50 (DU-145; read-out: pGI50 (converted)) was 3.31 µM and the CC50 (DU-145; [10]) was 56.2 µM. It also gave a TGI (DU-145; read-out: pTGI (converted)) of 11.7 µM, a GI50 (BT-549 [2]; read-out: GI50) of 2.25 µM and a CC50 (BT-549 [2]; [9]) of 23.7 µM. The TGI (BT-549 [2]; read-out: TGI) was 51.5 µM, the GI50 (BT-549 [2]; read-out: pGI50 (converted)) was 2.82 µM and the CC50 (BT-549 [2]; [10]) was 23.4 µM. It also gave a TGI (BT-549 [2]; read-out: pTGI (converted)) of 6.17 µM, a growth at 0.1 µM (SK-MEL-28 [3]) of 100% and a growth at 0.01 µM (ACHN) of 104%. For the same compound, the growth at 100 µM (BT-549 [4]) was -93%, the GI50 (SF-539; read-out: GI50) was 1.97 µM and the CC50 (SF-539; [9]) was 13.7 µM. It also gave a TGI (SF-539; read-out: TGI) of 44.9 µM, a GI50 (SF-539; read-out: pGI50 (converted)) of 1.95 µM and a CC50 (SF-539; [10]) of 13.8 µM. The TGI (SF-539; read-out: pTGI (converted)) was 4.47 µM, the growth at 0.01 µM (MOLT-4) was 100% and the GI50 (UACC-257; read-out: GI50) was 1.99 µM. The CC50 (UACC-257; [9]) was 19.2 µM, the TGI (UACC-257; read-out: TGI) was 63.4 µM and the GI50 (UACC-257; read-out: pGI50 (converted)) was 2 µM. The CC50 (UACC-257; [10]) was 19.1 µM, the TGI (UACC-257; read-out: pTGI (converted)) was 5.37 µM and the GI50 (NCI-H23; read-out: GI50) was 2.58 µM. The LC50 (NCI-H23; read-out: LC50) was 45.1 µM, the TGI (NCI-H23; read-out: TGI) was 74 µM and the GI50 (NCI-H23; read-out: pGI50 (converted)) was 2.57 µM. For the same compound, the LC50 (NCI-H23; read-out: pLC50 (converted)) was 45.7 µM, the TGI (NCI-H23; read-out: pTGI (converted)) was 7.41 µM and the IC50 (UO-31) was 2.1 µM. It also gave a GI50 (UO-31; read-out: GI50) of 2.1 µM, a CC50 (UO-31; [9]) of 34.7 µM and a TGI (UO-31; read-out: TGI) of 61.4 µM. For the same compound, the GI50 (UO-31; read-out: pGI50 (converted)) was 2.63 µM, the CC50 (UO-31; [10]) was 34.7 µM and the TGI (UO-31; read-out: pTGI (converted)) was 6.17 µM. For the same compound, the growth at 0.1 µM (NCI-H322M) was 101%, the growth at 0.01 µM (OVCAR-3 [5]) was 101% and the growth at 0.01 µM (SK-MEL-28 [6]) was 97%. For the same compound, the GI50 (NCI/ADR-RES; read-out: GI50) was 3.41 µM, the CC50 (NCI/ADR-RES; [9]) was > 100 µM and the TGI (NCI/ADR-RES; read-out: TGI) was 23.6 µM. For the same compound, the GI50 (NCI/ADR-RES; read-out: pGI50 (converted)) was 3.39 µM, the CC50 (NCI/ADR-RES; [10]) was > 100 µM and the TGI (NCI/ADR-RES; read-out: pTGI (converted)) was 23.4 µM. The growth at 0.01 µM (NCI-H522) was 56%, the growth at 1 µM (RPMI-8226) was 88% and the growth at 0.1 µM (KM12) was 92%. For the same compound, the growth at 100 µM (OVCAR-3 [7]) was -1%, the growth at 1 µM (CCRF-CEM [8]) was 92% and the GI50 (HL-60(TB); read-out: GI50) was 2.56 µM. The LC50 (HL-60(TB); read-out: LC50) was > 100 µM, the TGI (HL-60(TB); read-out: TGI) was 66.2 µM and the GI50 (HL-60(TB); read-out: pGI50 (converted)) was 2.88 µM. For the same compound, the LC50 (HL-60(TB); read-out: pLC50 (converted)) was > 100 µM, the TGI (HL-60(TB); read-out: pTGI (converted)) was 6.61 µM and the growth at 1 µM (CAKI-1) was 98%. The growth at 1 µM (PC-3) was 83% and the growth at 1 µM (MDA-MB-231) was 77%.
